Measurements published in PubChem BioAssay AID248 (DTP/NCI, 2004).
Values joined by “and” are separate entries in the source; they are usually repeats but may differ in a detail not shown here. Equal entries are not always repeated. Toxic doses and inconclusive results are not listed. Cut-off read from the data, not from the text of the source: active = T/C of 150% or more; inactive = T/C below 125%.

Tested on: L1210 leukemia ip in BDF1 mice, survival T/C
Experiment: NCI In Vivo Anticancer Drug Screen. Data for tumor model L1210 Leukemia (intraperitoneal) in B6D2F1 (BDF1) mice
Conditions: endpoint: mean survival time, higher = longer survival
Outline: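 Value reflects the ratio of survival in compound-treated mice to survival in vehicle-treated controls, with both groups carrying the same transplanted tumor.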

[1] = dose: 100.0 mg/kg/injection, schedule: Q01DX009 (ip), vehicle: saline with Tween-80
[2] = dose: 200.0 mg/kg/injection, schedule: Q01DX009 (ip), vehicle: saline with Tween-80
[3] = dose: 100.0 mg/kg/injection, schedule: Q01DX009 (ip), vehicle: Klucel (hydroxypropylcellulose) (HPC)
[4] = dose: 100.0 mg/kg/injection, schedule: Q04DX003 (ip), vehicle: Klucel (hydroxypropylcellulose) (HPC)
[5] = dose: 200.0 mg/kg/injection, schedule: Q01DX009 (ip), vehicle: Klucel (hydroxypropylcellulose) (HPC)
[6] = dose: 200.0 mg/kg/injection, schedule: Q04DX003 (ip), vehicle: Klucel (hydroxypropylcellulose) (HPC)
[7] = dose: 400.0 mg/kg/injection, schedule: Q04DX003 (ip), vehicle: Klucel (hydroxypropylcellulose) (HPC)
[8] = dose: 50.0 mg/kg/injection, schedule: Q01DX001 (ip), vehicle: saline
[9] = dose: 100.0 mg/kg/injection, schedule: Q01DX001 (ip), vehicle: saline with Tween-80
[10] = dose: 100.0 mg/kg/injection, schedule: Q01DX001 (ip), vehicle: saline
[11] = dose: 200.0 mg/kg/injection, schedule: Q01DX001 (ip), vehicle: saline
[12] = dose: 400.0 mg/kg/injection, schedule: Q01DX001 (ip), vehicle: saline
[13] = dose: 100.0 mg/kg/injection, schedule: Q04DX003 (ip), vehicle: saline with Tween-80
[14] = dose: 200.0 mg/kg/injection, schedule: Q04DX003 (ip), vehicle: saline with Tween-80
[15] = dose: 400.0 mg/kg/injection, schedule: Q04DX003 (ip), vehicle: saline with Tween-80
[16] = dose: 100.0 mg/kg/injection, schedule: Q01DX009 (ip), vehicle: saline
[17] = dose: 50.0 mg/kg/injection, schedule: Q01DX001 (ip), vehicle: carboxymethylcellulose (CMC)
[18] = dose: 400.0 mg/kg/injection, schedule: Q01DX001 (ip), vehicle: carboxymethylcellulose (CMC)

Measured: T/C

CN(C)O
inactive: [1] 103 % of control | [2] 105 % of control | dose: 222.0 mg/kg/injection, schedule: Q01DX Z (ip), vehicle: saline 100 % of control | dose: 333.0 mg/kg/injection, schedule: Q01DX Z (ip), vehicle: saline 97 % of control | dose: 400.0 mg/kg/injection, schedule: Q01DX009 (ip), vehicle: saline with Tween-80 108 % of control | dose: 500.0 mg/kg/injection, schedule: Q01DX Z (ip), vehicle: saline 106 % of control

CC1CCCC[N-]1.CC1CCCC[N-]1.[Cl][Pt+2][Cl] (configuration not stated)
inactive: [3] 97 % of control | [4] 98 % of control | [5] 102 % of control | [6] 96 % of control | [7] 102 % of control

O=C(NCCCl)Nc1c2ccccc2nc2ccccc12
inactive: [3] 97 % of control | [4] 103 % of control | [5] 89 % of control | [6] 103 % of control | [7] 104 % of control

C/C=C/C(=O)Nc1cccc(C(F)(F)F)c1
inactive: dose: 25.0 mg/kg/injection, schedule: Q01DX009 (ip), vehicle: other 92 % of control | dose: 50.0 mg/kg/injection, schedule: Q01DX009 (ip), vehicle: other 102 % of control | dose: 100.0 mg/kg/injection, schedule: Q01DX009 (ip), vehicle: other 92 % of control and 95 % of control

CC1=NN(c2ccccc2)C(=O)C1
inactive: [8] 94 % of control | [9] 104 % of control | [10] 94 % of control | dose: 200.0 mg/kg/injection, schedule: Q01DX001 (ip), vehicle: saline with Tween-80 101 % of control | [11] 90 % of control | dose: 400.0 mg/kg/injection, schedule: Q01DX001 (ip), vehicle: saline with Tween-80 101 % of control | [12] 102 % of control

O=C1NC(=O)C2CC(Br)C(Br)CC12 (configuration not stated)
inactive: dose: 2.5 mg/kg/injection, schedule: Q01DX009 (ip), vehicle: Klucel (hydroxypropylcellulose) (HPC) 100 % of control | dose: 2.5 mg/kg/injection, schedule: Q04DX003 (ip), vehicle: Klucel (hydroxypropylcellulose) (HPC) 98 % of control | dose: 5.0 mg/kg/injection, schedule: Q01DX009 (ip), vehicle: Klucel (hydroxypropylcellulose) (HPC) 100 % of control | dose: 5.0 mg/kg/injection, schedule: Q04DX003 (ip), vehicle: Klucel (hydroxypropylcellulose) (HPC) 100 % of control | dose: 10.0 mg/kg/injection, schedule: Q01DX009 (ip), vehicle: Klucel (hydroxypropylcellulose) (HPC) 100 % of control | dose: 10.0 mg/kg/injection, schedule: Q04DX003 (ip), vehicle: Klucel (hydroxypropylcellulose) (HPC) 98 % of control and 100 % of control

O=C(Nc1ccc(NC(=O)Nc2cc(C(=O)Nc3ccc(C4=NCCN4)cc3)ccc2C(=O)Nc2ccc(C3=NCCN3)cc2)cc1)Nc1cc(C(=O)Nc2ccc(C3=NCCN3)cc2)ccc1C(=O)Nc1ccc(C2=NCCN2)cc1
inactive: dose: 100.0 mg/kg/injection, schedule: Q01DX Z (oral), vehicle: saline 93 % of control | dose: 120.0 mg/kg/injection, schedule: Q01DX Z (ip), vehicle: saline 120 % of control | dose: 200.0 mg/kg/injection, schedule: Q01DX Z (oral), vehicle: saline 98 % of control | dose: 400.0 mg/kg/injection, schedule: Q01DX Z (oral), vehicle: saline 101 % of control

O=c1oc2ccc(Cl)cc2c(OCCO)c1Cl
inactive: [13] 94 % of control | [14] 96 % of control | [15] 86 % of control

C[N+]1(C)C2CC(O)CC1C1OC12 (configuration not stated)
inactive: dose: 1.2 mg/kg/injection, schedule: Q01DX001 (ip), vehicle: saline 95 % of control | dose: 2.5 mg/kg/injection, schedule: Q01DX001 (ip), vehicle: saline 97 % of control | dose: 5.0 mg/kg/injection, schedule: Q01DX001 (ip), vehicle: saline 100 % of control

Cc1cc2ccccc2[n+](C)c1-c1ccccc1Cl
inactive: dose: 12.5 mg/kg/injection, schedule: Q04DX003 (ip), vehicle: saline 102 % of control

Cc1ccc(S(=O)(=O)N(CCC(=N)N)C(C)C)cc1
inactive: dose: 25.0 mg/kg/injection, schedule: Q01DX009 (ip), vehicle: saline 91 % of control | dose: 50.0 mg/kg/injection, schedule: Q01DX009 (ip), vehicle: saline 96 % of control | [16] 96 % of control | dose: 100.0 mg/kg/injection, schedule: Q04DX003 (ip), vehicle: saline 104 % of control

c1ccc2c(c1)C(=Nc1ccc3ccccc3c1)c1ccccc1-2
inactive: [13] 97 % of control | [14] 88 % of control | [15] 92 % of control

ClC1(Cl)C2CC(C3C4C=CC(C4)C32)C1(Cl)Cl (configuration not stated)
inactive: [17] 88 % of control | [18] 101 % of control

CC(C)(C)Sc1ccncc1
inactive: [1] 98 % of control | [2] 88 % of control

C[n+]1ccn2ccccc21
inactive: dose: 50.0 mg/kg/injection, schedule: Q01DX001 (ip), vehicle: saline with Tween-80 104 % of control | [9] 109 % of control

CCOC(=O)c1ccc(S(=O)(=O)N(CC)CC)cc1
inactive: [17] 89 % of control | dose: 100.0 mg/kg/injection, schedule: Q01DX001 (ip), vehicle: carboxymethylcellulose (CMC) 96 % of control | dose: 200.0 mg/kg/injection, schedule: Q01DX001 (ip), vehicle: carboxymethylcellulose (CMC) 91 % of control | [18] 102 % of control

N#CCN(CC#N)CCN(CC#N)CC#N
inactive: [3] 95 % of control | [4] 103 % of control | [5] 92 % of control | [6] 90 % of control | dose: 400.0 mg/kg/injection, schedule: Q01DX009 (ip), vehicle: Klucel (hydroxypropylcellulose) (HPC) 93 % of control | [7] 105 % of control

O=C(CCCC(=O)N/N=C/c1cc(Br)ccc1O)N/N=C\c1cc(Br)ccc1O
inactive: [8] 93 % of control | [10] 98 % of control | [16] 89 % of control | [11] 98 % of control | [12] 96 % of control | dose: 400.0 mg/kg/injection, schedule: Q01DX009 (ip), vehicle: saline 92 % of control

COP(=O)(O)C(C)=O (tested in a mixture with another compound)
inactive: dose: 100.0 mg/kg/injection, schedule: Q04DX002 (ip), vehicle: other 96 % of control | dose: 200.0 mg/kg/injection, schedule: Q04DX002 (ip), vehicle: other 114 % of control | dose: 400.0 mg/kg/injection, schedule: Q04DX002 (ip), vehicle: other 101 % of control

CC(=O)Nc1ccc(OC(=O)Nc2ccc(F)c([N+](=O)[O-])c2)cc1
inactive: [3] 118 % of control | [5] 112 % of control
